Experimental data: patent US10369130B2, “Antibacterial compounds” (AZIENDE CHIMICHE RIUNITE ANGELINI FRANCESCO A.C.R.A.F. …, priority 2014, dated 2019)
Structures can show the parent of a compound that is named as a salt.

Legend:
Type in all cases: biochemical
Settings in all cases: single concentration (200, 100 or 50 μM), in duplicate, versus the positive control (vehicle)
DNA gyrase [1] = target: T1, DNA gyrase (Staphylococcus aureus, UniProt P0A0K8+P20831); assay: DNA gyrase supercoiling assay (S. aureus)
T1 construct: purchased Inspiralis, UK
Method: (§1) The above compounds were tested for the inhibition of the enzyme DNA gyrase in a gyrase supercoiling assay and for the inhibition of the enzyme topoisomerase IV in a decatenation assay, in both Gram positive and Gram negative bacteria, according to the following methods.
(§2) Both the assays were carried out according to a set-up method modified from the article to Blanche F, et al. “Differential Behaviors of Staphylococcus aureus and Escherichia coli Type II DNA Topoisomerases”, Antimicrob.
(§3) The compounds were screened at single concentration (200, 100 or 50 μM), in duplicate.
(§4) Ciprofloxacin and novobiocin were used as reference compounds, at single concentration of 200 and 50 μM, respectively.
(§5) DNA Gyrase Supercoiling Assay.
(§6) Reagents from S. aureus and E. coli Gyrase Supercoiling Assay kits (Inspiralis, UK) were used. A master mix with a total volume sufficient for the number of reactions to perform was prepared with the following reagents: 5× assay buffer, relaxed pBR322 substrate (0.5 μg/reaction), RNase-DNase free water. Aliquotes of this mix were dispensed in each tube, then 10× compound stock solutions or vehicle control (DMSO), were added to each reaction tube.
(§7) Reaction was started with E. Coli (2 U/reaction) or S. aureus (1 U/reaction) gyrase enzyme addition.
(§8) A sample added with an equal volume of dilution buffer was used as negative control (without enzyme).
(§9) The reaction tubes were gentle vortexed and incubated 30 minutes at 37° C. Each reaction was stopped by adding 30 μl of Stop Buffer and 30 μl chloroform/isoamyl alcohol (24/1), briefly vortexed for 5-10 seconds and centrifuged at 20000×g for 2 minutes. Samples were loaded onto 1% agarose gel and subjected to electrophoresis for 1 hour at 80V constant voltage in TAE (40 mM Tris-acetate, 2 mM EDTA).
(§10) Data acquisition and analysis. Treatment of relaxed pBR322 with DNA gyrase converted the relaxed topoisomers (DNAs of different linking number) to the supercoiled form of the plasmid, which migrates faster on an agarose gel. An upper band might also be visible, which consists of open-circular (nicked) DNA which is present in the relaxed substrate but co-migrates with some of the relaxed topoisomers.
(§11) Bands were visualized by ethidium bromide staining (dil 1:20000) for 30 minutes followed by destaining in distilled water for 10 minutes.
(§12) In order to evaluate the compounds activity on the enzyme, the bands of supercoiled DNAs in the gel were photographed by a digital imaging system ImageQuant LAS 4000 (GE Healthcare) according to manufacturer's instructions.
(§13) The fluorescent intensity of each band was analysed by ImageQuant TL software and it was expressed as volume (volume of the uncalibrated quantity of material in the image feature after subtraction of the background intensity by using rolling ball method).
(§14) Each band intensity was compared, as percentage, to vehicle sample band intensity, which served as positive control, on the same gel.
(§15) Inhibitory activity was expressed as percent of inhibition versus the positive control.

DNA gyrase [2] = target: T2, DNA gyrase (Escherichia coli, UniProt P0AES4+P0AES6); assay: DNA gyrase supercoiling assay (E. coli)
T2 construct: purchased Inspiralis, UK
Method: as §1, §2, §3, §4, §5, §6, §7, §8, §9, §10, §11, §12, §13, §14, §15

Topoisomerase IV [3] = target: T3, Topoisomerase IV (Escherichia coli, UniProt P0AFI2+P20083); assay: Topoisomerase IV decatenation assay (E. coli)
T3 construct: purchased Inspiralis, UK
Method: as §1, §2, §3, §4
(§16) Topoisomerase IV Decatenation Assay
(§17) S. aureus and E. coli Topoisomerase IV decatenation kits (Inspiralis, UK) were used. A master mix with a total volume sufficient for the number of reactions to perform was prepared with the following reagents: 5× assay buffer (50 mM HEPES-KOH (pH 7.6), 100 mM potassium glutamate, 10 mM magnesium acetate, 10 mM DTT, 1 mM ATP, 50 μg/ml albumin), kDNA substrate (200 ng/reaction), RNase-DNase free water. Aliquots of this mix were dispensed in each tube, then 10× compound stock solutions or vehicle control (DMSO), were added in each reaction tube.
(§18) Reaction was started with Topoisomerase IV enzyme (0.5 U/reaction) addition.
as §8
(§19) The reaction tubes were gentle vortexed and incubated 30 minutes at 37° C. Each reaction was stopped by adding 30 μl of Stop Buffer and 30 μl of chloroform/isoamyl alcohol (24/1), briefly vortexed for 5-10 seconds and centrifuged at 20000×g for 2 minutes. Samples taken from the upper phase were loaded into 1% agarose gel and subjected to electrophoresis for 1 hour at 80V constant voltage in TAE (40 mM Tris-acetate, 2 mM EDTA).
(§20) Data acquisition and analysis. Due to the high molecular mass, kDNA could not enter an agarose gel under normal electrophoresis conditions, but remained in the wells. In the presence of Topo IV topoisomerase mini-circles (2.5 Kb) were released from kDNA by decatenation and were quickly and easily resolved in the gel at relatively high voltages.
as §11
(§21) For single concentration screening assay, in order to evaluate the compounds activity on the enzymes, the bands of decatenated DNAs in the gel were photographed by a digital imaging system ImageQuant LAS 4000 (GE Healthcare) according to manufacturer's instructions.
(§22) The fluorescent intensity of each band was analyzed by ImageQuant TL software and it was expressed as volume (volume of the uncalibrated quantity of material in the image feature after subtraction of the background intensity by using rolling ball method).
as §14, §15

Topoisomerase IV [4] = target: T4, Topoisomerase IV (Staphylococcus aureus, UniProt P0C1S7+P0C1U9); assay: Topoisomerase IV decatenation assay (S. aureus)
T4 construct: purchased Inspiralis, UK
Method: as §1, §2, §3, §4, §16, §17, §18, §8, §19, §20, §11, §21, §22, §14, §15

T2 sequence (P0AES4 whole entry, one chain of several): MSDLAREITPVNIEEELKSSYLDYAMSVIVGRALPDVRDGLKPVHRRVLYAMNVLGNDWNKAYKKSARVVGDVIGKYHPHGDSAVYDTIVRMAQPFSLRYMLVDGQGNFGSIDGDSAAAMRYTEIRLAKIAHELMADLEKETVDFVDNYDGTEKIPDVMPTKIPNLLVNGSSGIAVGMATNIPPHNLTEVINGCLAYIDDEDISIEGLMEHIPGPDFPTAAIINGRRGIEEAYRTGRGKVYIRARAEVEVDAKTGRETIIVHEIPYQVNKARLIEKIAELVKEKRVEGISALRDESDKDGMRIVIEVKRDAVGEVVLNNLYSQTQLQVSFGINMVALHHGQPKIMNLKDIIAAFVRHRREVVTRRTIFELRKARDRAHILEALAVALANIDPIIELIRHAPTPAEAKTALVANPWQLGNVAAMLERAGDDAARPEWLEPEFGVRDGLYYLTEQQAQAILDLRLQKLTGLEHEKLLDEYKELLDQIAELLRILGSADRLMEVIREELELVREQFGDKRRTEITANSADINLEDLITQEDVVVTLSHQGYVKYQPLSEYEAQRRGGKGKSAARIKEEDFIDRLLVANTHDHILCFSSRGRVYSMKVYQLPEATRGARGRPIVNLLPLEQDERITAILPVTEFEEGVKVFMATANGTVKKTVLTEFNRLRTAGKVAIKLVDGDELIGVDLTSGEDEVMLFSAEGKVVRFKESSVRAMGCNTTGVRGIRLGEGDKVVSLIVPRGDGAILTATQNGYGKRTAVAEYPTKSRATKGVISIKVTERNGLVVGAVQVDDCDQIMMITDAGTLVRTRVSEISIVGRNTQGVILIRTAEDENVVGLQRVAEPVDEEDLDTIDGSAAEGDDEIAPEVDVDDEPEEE
T1 sequence (P20831 whole entry): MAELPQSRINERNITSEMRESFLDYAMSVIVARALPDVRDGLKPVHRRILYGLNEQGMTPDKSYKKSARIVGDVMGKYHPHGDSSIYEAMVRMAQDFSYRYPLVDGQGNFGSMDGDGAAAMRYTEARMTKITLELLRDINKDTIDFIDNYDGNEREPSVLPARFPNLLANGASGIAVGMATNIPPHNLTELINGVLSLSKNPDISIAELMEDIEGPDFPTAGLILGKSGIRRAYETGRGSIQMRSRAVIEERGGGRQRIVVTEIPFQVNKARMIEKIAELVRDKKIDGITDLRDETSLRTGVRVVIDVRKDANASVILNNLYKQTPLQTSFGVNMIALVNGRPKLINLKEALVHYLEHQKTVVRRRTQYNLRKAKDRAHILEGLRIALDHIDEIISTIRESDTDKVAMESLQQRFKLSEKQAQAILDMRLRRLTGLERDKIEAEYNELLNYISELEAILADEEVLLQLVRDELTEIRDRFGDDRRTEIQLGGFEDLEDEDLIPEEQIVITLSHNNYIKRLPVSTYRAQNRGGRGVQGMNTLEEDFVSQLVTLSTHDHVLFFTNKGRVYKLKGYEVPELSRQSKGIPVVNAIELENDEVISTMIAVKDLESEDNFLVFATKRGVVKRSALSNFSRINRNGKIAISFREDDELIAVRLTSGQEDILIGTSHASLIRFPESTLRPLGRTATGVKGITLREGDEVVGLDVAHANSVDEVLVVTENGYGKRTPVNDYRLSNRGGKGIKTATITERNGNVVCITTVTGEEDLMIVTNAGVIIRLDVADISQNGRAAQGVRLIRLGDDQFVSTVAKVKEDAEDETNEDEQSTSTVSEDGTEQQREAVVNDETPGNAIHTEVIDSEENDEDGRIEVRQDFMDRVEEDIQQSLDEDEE
T1 sequence (P0A0K8 whole entry): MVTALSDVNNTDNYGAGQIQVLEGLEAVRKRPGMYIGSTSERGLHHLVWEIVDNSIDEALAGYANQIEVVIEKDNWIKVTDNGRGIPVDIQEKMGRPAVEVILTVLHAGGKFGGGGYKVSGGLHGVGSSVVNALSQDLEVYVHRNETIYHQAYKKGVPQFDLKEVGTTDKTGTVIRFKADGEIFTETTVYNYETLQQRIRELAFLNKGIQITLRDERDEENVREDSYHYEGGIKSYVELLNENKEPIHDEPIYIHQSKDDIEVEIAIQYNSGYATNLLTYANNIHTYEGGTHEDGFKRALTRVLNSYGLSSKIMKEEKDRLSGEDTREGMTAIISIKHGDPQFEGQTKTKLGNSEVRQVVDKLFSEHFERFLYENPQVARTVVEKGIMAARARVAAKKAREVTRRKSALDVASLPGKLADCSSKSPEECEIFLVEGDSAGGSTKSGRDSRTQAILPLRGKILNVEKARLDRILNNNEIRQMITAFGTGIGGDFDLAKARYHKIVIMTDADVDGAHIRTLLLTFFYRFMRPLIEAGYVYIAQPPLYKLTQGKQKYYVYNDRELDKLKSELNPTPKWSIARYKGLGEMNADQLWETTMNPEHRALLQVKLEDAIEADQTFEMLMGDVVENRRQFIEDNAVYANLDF
T3 sequence (P20083 whole entry): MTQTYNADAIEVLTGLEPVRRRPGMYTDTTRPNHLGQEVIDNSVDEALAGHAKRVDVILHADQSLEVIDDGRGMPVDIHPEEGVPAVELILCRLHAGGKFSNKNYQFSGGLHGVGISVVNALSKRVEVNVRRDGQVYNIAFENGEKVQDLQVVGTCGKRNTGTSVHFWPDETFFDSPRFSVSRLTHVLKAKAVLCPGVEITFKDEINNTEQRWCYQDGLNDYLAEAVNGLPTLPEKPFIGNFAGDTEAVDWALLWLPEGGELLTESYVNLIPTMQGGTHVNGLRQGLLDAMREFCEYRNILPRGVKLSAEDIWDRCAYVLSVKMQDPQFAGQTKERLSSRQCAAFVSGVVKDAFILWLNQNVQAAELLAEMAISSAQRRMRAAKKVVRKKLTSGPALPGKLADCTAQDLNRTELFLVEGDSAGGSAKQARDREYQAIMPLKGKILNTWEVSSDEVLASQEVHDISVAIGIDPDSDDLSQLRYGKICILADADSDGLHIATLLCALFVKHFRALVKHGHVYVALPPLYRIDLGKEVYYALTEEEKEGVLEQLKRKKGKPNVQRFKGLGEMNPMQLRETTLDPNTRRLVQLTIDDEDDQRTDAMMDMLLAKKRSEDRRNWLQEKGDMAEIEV
T3 sequence (P0AFI2 whole entry): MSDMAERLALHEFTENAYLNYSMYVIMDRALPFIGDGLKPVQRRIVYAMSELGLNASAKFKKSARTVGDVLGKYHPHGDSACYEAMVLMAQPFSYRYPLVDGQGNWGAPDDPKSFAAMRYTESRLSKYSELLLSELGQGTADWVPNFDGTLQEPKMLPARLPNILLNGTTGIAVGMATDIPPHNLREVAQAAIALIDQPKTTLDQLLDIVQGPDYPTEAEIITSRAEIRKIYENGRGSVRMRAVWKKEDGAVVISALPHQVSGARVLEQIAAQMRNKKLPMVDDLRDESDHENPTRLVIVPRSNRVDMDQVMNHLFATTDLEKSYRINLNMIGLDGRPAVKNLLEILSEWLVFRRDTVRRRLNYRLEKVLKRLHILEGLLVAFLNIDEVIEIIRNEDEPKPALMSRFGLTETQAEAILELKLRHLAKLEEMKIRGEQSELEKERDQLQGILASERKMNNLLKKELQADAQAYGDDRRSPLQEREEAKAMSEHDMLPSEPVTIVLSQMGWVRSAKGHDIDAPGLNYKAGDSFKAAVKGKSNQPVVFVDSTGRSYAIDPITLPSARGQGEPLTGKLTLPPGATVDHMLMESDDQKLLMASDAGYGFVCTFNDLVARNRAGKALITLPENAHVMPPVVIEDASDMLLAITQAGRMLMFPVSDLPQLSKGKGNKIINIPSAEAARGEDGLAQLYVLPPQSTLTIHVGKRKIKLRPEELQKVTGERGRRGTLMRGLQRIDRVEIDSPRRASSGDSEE

Structure (SMILES) | % inhibition DNA gyrase (DNA gyrase [1]) | % inhibition DNA gyrase (DNA gyrase [2]) | % inhibition Topo IV (Topoisomerase IV [3]) | % inhibition Topo IV (Topoisomerase IV [4])
O=C(NCCN1CCN(c2nccc3ccccc23)CC1)c1ccccc1 [Compound 4, N-{2-[4-(isoquinolin-1-yl)piperazin-1-yl]ethyl}benzamide hydrochloride] | 84% | n/a (n/a = not active) | 53% | n/a (n/a = not active)
Cc1cc2ccccc2c(N2CCN(CCCNC(=O)c3cccnc3)CC2)n1 [Compound 21, N-{3-[4-(3-methylisoquinolin-1-yl)piperazin-1-yl]propyl}pyridine-3-carboxamide hydrochloride] | 67% | n/a (n/a = not active) | n/a (n/a = not active) | n/a (n/a = not active)
O=C(NCCCN1CCN(c2nccc3ccccc23)CC1)c1cnc2ccoc2c1 [Compound 31, N-{3-[4-(isoquinolin-1-yl)piperazin-1-yl]propyl}furo[3,2-b]pyridine-6-carboxamide hydrochloride] | 65% | n/a (n/a = not active) | n/a (n/a = not active) | n/a (n/a = not active)
Cc1ccc2c(N3CCN(CCCNC(=O)c4cccnc4)CC3)nccc2c1 [Compound 35, N-{3-[4-(6-methylisoquinolin-1-yl)piperazin-1-yl]propyl}pyridine-3-carboxamide] | 78% | n/a (n/a = not active) | n/a (n/a = not active) | n/a (n/a = not active)
COc1ccc2c(N3CCN(CCCNC(=O)c4cccnc4)CC3)nccc2c1 [Compound 36, N-{3-[4-(6-methoxyisoquinolin-1-yl)piperazin-1-yl]propyl}pyridine-3-carboxamide hydrochloride] | 90% | n/a (n/a = not active) | n/a (n/a = not active) | n/a (n/a = not active)
Fc1ccc(F)c(CNCCCN2CCN(c3nccc4ccccc34)CC2)c1 [Compound 38, N-(2,5-difluorobenzyl)-3-[4-(isoquinolin-1-yl)piperazin-1-yl]propan-1-amine hydrochloride] | 63% | n/a (n/a = not active) | n/a (n/a = not active) | n/a (n/a = not active)
O=C(NCCCN1CCN(c2nccc3ccccc23)CC1)c1cc(F)ccc1F [Compound 39, 2,5-difluoro-N-{3-[4-(isoquinolin-1-yl)piperazin-1-yl]propyl}benzamide hydrochloride] | 74% | 50% | n/a (n/a = not active) | n/a (n/a = not active)
O=C(NCCCN1CCN(c2nccc3ccccc23)CC1)c1cc2ccoc2cn1 [Compound 42, N-{3-[4-(isoquinolin-1-yl)piperazin-1-yl]propyl}furo[2,3-c]pyridine-5-carboxamide hydrochloride] | 84% | n/a (n/a = not active) | n/a (n/a = not active) | n/a (n/a = not active)
O=C(NCCCN1CCN(c2nccc3ncccc23)CC1)c1cccnc1 [Compound 43, N-{3-[4-(1,6-naphthyridin-5-yl)piperazin-1-yl]propyl}pyridine-3-carboxamide hydrochloride] | 100% | n/a (n/a = not active) | n/a (n/a = not active) | n/a (n/a = not active)
O=C(NCCCN1CCN(c2nccc3cc(F)ccc23)CC1)c1cccnc1 [Compound 45, N-{3-[4-(6-fluoroisoquinolin-1-yl)piperazin-1-yl]propyl}pyridine-3-carboxamide hydrochloride] | 81% | n/a (n/a = not active) | n/a (n/a = not active) | n/a (n/a = not active)
O=c1cc(NCCCN2CCN(c3cccc4ccccc34)CC2)c2ccccc2o1 [Compound 50, 4-({3-[4-(naphthalen-1-yl)piperazin-1-yl]propyl}amino)-2H-chromen-2-one hydrochloride] | n/a (n/a = not active) | 92% | n/a (n/a = not active) | n/a (n/a = not active)
CN(CCCN1CCN(c2nccc3ccccc23)CC1)c1cc(=O)oc2ccccc12 [Compound 53, 4-[{3-[4-(isoquinolin-1-yl)piperazin-1-yl]propyl}(methyl)amino]-2H-chromen-2-one hydrochloride] | 57% | 64% | n/a (n/a = not active) | n/a (n/a = not active)
O=c1cc(NCCCN2CCN(c3nccc4ccccc34)CC2)cc(-c2ccccc2)o1 [Compound 60, 4-({3-[4-(isoquinolin-1-yl)piperazin-1-yl]propyl}amino)-6-phenyl-2H-pyran-2-one hydrochloride] | 89% | 100% | n/a (n/a = not active) | n/a (n/a = not active)
O=c1cc(N2CCN(CCCNc3cc(=O)oc4ccccc34)CC2)c2ccccc2[nH]1 [Compound 68, 4-(4-{3-[(2-oxo-2H-chromen-4-yl)amino]propyl}piperazin-1-yl)quinolin-2(1H)-one hydrochloride] | n/a (n/a = not active) | 100% | n/a (n/a = not active) | n/a (n/a = not active)
O=c1cc(OCCCN2CCN(c3nccc4ccccc34)CC2)c2ccccc2o1 [Compound 70, 4-{3-[4-(isoquinolin-1-yl)piperazin-1-yl]propoxy}-2H-chromen-2-one hydrochloride] | 75% | 86% | n/a (n/a = not active) | n/a (n/a = not active)
O=C1CN(c2nccc3ccccc23)CCN1CCCNc1cc(=O)oc2ccccc12 [Compound 71, 4-(isoquinolin-1-yl)-1-{3-[(2-oxo-2H-chromen-4-yl)amino]propyl}piperazin-2-one hydrochloride] | n/a (n/a = not active) | 56% | n/a (n/a = not active) | n/a (n/a = not active)
O=c1cc(NC2CCCC(N3CCN(c4nccc5ccccc45)CC3)C2)c2ccccc2o1 (centres unmarked) [Compound 74, 4-({3-[4-(isoquinolin-1-yl)piperazin-1-yl]cyclohexyl}amino)-2H-chromen-2-one hydrochloride] | 61% | 65% | n/a (n/a = not active) | n/a (n/a = not active)
